This experiment concerns the target T1, Tyrosine-protein phosphatase non-receptor type 11 (Homo sapiens, UniProt Q06124).
T1 sequence (Q06124 whole entry): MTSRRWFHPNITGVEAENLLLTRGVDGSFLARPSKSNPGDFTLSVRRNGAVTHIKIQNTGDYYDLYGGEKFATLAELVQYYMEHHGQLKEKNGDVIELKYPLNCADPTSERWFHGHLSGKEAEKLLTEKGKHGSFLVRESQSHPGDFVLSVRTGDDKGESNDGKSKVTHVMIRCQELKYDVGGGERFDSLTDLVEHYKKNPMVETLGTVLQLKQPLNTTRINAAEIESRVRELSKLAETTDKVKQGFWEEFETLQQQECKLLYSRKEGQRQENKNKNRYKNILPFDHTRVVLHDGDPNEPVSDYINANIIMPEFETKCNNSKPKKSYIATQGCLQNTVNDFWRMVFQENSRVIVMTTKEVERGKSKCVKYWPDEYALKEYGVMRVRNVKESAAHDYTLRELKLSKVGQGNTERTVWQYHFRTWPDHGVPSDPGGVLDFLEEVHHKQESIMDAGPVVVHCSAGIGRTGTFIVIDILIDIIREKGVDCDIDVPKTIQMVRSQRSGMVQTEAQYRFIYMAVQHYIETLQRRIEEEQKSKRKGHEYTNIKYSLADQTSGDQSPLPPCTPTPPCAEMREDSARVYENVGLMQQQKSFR
As to the kind of experiment: SPH2 Allosteric Inhibition Assay and Binding.

Our source for the IC50 values is BindingDB's records for patent US12138263 (Relay Therapeutics, 2024).

On to `CC1(CN)CCN(c2cnc3c(N4CCCc5c4cccc5S(=O)(=O)F)n[nH]c3n2)CC1` [US12138263, Compound 5A], for which the IC50 was less than 1000 nM.
